Measurements from patent US10766888B1, “HMOX1 inducers” (Mitobridge Inc., priority 2019, dated 2020).
Converted amounts (≈) assume the structure as drawn. Counter-ions that a name gives are not always drawn. Like-named read-outs stand apart in the source and are kept apart here.

Legend:
[1] = system: FTH1; assay: FTH1 mRNA expression in HepG2 cells (Nanostring); type: cell-based, human; conditions: 24 hours treatment
Protocol: RNA Isolation and Quantification of Gene Expression
HepG2 cells were seeded at 250 k/well in 12-well tissue culture plates coated with collagen (collagen I, rat tail (thin plate coating); ENZO Life Sciences) for approximately 24 hours. The seeded cells were then treated with dose titration of the compound of Example 17 or dimethyl fumarate (DMF) (a Nrf2 activator; Fisher Scientific) via media change, with biological triplicates performed for each treatment. After approximately 24 hours of treatment, cells were visually inspected to confirm that no toxicity occurred with compound treatment. The treated cells were washed with PBS, aspirated, parafilmed and frozen at −80° C. prior to RNA isolation. RNA was isolated using Machery-Nagel isolation kit (NucleoSpin® RNA: catalog 740955.250) and then quantitated using ThermoFisher Nanodrop.
RNA was diluted for Nanostring gene expression analysis. The diluted RNA at an input of 200 ng RNA was run on a Nanostring instrument, which was supported with nCounter® SPRINT Profiler System and nSolver4.0 Software, nCounter® SPRINT Cartridge, nCounter® SPRINT Reagent Pack, and nCounter® SPRINT Hybridization Buffer. Analysis was done manually using raw data obtained from nSolver4.0 Software. CLTC, POLR2A, RPL27 and TBP were used as reference genes for normalization. Data was graphed as fold change compared to DMSO treatment. […]

[2] = system: Human Heme Oxygenase-1 (HMOX-1); assay: ELISA assay to measure human heme oxygenase-1 (HMOX-1) in HepG2 lysate; type: cell-based
Procedure, shortened: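 HO-1 protein levels were read as fold change over DMSO-treated cells, with EC50 derived from these values. Quantitation used a chemiluminescent streptavidin-HRP capture ELISA, calibrated with an HO-1 standard series starting at 20 ng/ml, run at 20 °C. Samples were HepG2 lysates made with Triton X100/EDTA buffer and diluted 1:20.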

[3] = molecular target: hERG channel (Homo sapiens, UniProt Q12809); assay: hERG manual patch clamp assay; type: cell-based; conditions: HEK 293 cells stably expressing hERG channel, pH 7.35, 10 μM compound
hERG channel, sequence (Q12809 whole entry): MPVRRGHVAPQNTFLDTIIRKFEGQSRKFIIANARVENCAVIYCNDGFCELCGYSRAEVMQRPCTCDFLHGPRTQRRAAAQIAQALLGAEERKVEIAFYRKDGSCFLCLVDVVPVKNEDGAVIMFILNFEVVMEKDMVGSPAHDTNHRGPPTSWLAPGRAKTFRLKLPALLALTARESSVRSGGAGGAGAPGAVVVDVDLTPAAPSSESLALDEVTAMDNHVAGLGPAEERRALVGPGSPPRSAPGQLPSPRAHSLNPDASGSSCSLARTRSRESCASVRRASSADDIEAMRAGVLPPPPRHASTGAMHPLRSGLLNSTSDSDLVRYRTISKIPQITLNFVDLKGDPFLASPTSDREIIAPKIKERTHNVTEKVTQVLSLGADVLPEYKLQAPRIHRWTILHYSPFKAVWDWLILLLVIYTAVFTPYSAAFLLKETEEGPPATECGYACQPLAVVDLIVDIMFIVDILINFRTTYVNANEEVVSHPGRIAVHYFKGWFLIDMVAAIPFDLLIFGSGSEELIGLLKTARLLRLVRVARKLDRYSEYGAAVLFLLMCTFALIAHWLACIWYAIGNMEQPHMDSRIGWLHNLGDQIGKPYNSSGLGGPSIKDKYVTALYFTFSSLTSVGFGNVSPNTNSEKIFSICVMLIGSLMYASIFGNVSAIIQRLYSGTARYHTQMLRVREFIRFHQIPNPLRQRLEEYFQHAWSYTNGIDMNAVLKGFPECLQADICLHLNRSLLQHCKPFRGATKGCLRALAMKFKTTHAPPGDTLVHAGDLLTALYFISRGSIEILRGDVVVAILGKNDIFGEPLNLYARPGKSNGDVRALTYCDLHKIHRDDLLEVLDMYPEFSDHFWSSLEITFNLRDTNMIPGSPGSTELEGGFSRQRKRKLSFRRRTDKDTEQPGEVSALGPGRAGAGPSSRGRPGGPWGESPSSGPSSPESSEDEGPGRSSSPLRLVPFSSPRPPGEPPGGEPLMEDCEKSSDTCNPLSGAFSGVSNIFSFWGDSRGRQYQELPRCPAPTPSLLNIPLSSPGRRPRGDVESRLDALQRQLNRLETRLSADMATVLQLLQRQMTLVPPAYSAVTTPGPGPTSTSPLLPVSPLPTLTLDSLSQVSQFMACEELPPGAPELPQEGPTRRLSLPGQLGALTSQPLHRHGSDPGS
Protocol: Cell Lines and Cell Culture
HEK 293 cell line stably expressing hERG channel (Cat # K1236) was purchased from Invitrogen. The cells were cultured in 85% DMEM, 10% dialyzed FBS, 0.1 mM NEAA, 25 mM HEPES, 100 U/mL Penicillin-Streptomycin and 5 μg/mL Blasticidin and 400 μg/mL Geneticin. Cells were split using TrypLE™ Express about three times a week, and maintained between ˜40% to ˜80% confluence. Before the assay, the cells were transferred onto the coverslips at 5×10^5 cells/per 6 cm cell culture dish and induced with doxycycline at 1 μg/mL for 48 hours.
• 1) External solution (in mM): 132 NaCl, 4 KCl, 3 CaCl2, 0.5 MgCl2, 11.1 glucose, and 10 HEPES (pH adjusted to 7.35 with NaOH) • 2) Internal solution (in mM): 140 KCl, 2 MgCl2, 10 EGTA, 10 HEPES and 5 MgATP (pH adjusted to 7.35 with KOH) • 3) hERG currents were tested in presence of 10 μM compound concentration with final concentration of DMSO of 0.1%. Experimental Procedure • 1) Removed the coverslip from the cell culture dish and placed it on the microscope stage in bath chamber. • 2) Located a desirable cell using the 10× objective. Located the tip of the electrode under the microscope using the 10× objective by focusing above the plane of the cells. Once the tip was in focus, advanced the electrode downwards towards the cell using the coarse controls of the manipulator, while simultaneously moving the objective to keep the tip in focus. • 3) When directly over the cell, switched to the 40× objective and used the fine controls of the manipulator to approach the surface of the cell in small steps. • 4) Applied gentle suction through the side-port of the electrode holder to form a gigaohm seal. • 5) Used the Cfast to remove the capacity current that was in coincidence with the voltage step. Obtained the whole cell configuration by applying repetitive, brief, strong suction until the membrane patch ruptured. • 6) Set membrane potential to −60 mV at this point to ensure that hERG channels were not • open. The spikes of capacity current should then be cancelled using the Cslow on the amplifier. 7) Set holding potential to −90 mV for 500 ms; recorded current at 50 kHz and filtered at 10 kHz. Leaking current was tested at −80 mV for 500 ms. • 8) The hERG current was elicited by depolarizing at +30 mV for 4.8 seconds and then the voltage was taken back to −50 mV for 5.2 seconds to remove the inactivation and observe the deactivating tail current. The maximum amount of tail current size was used to determine hERG current amplitude. • 9) Recorded current for 120 seconds to assess the current stability. Only stable cells with recording parameters above threshold were applied for the compound administrations. • 10) Firstly vehicle control was applied to the cells to establish the baseline. […] In order to ensure the good performance of cultured cells and operations, the positive control, Dofetilide, with 5 dose concentration was also used to test the same batch of cells. Data Analysis
The following criteria were used to determine data acceptability. • 1) Initial seal resistance >1 GΩ; • 2) Leak currents <50% of the control peak tail currents at any time; • 3) The peak tail amplitude >250 pA; • 4) Membrane resistance Rm>500 MΩ; • 5) Access resistance (Ra)<10 MΩ; • 6) Apparent run-down of peak current <2.5% per min.
Data that met the above criteria for hERG current quality were further analyzed as the following steps. • 1) Percent hERG current inhibition was calculated using the following equation. • Note: PatchMaster or Clampfit software was used to extract the peak current from the original data.
[formula] • 2) The dose response curve of test compounds was plotted with percentage of hERG current inhibition against the concentration of test compounds using Graphpad Prism 6.0, and fit to a sigmoid dose-response curve with a variable slope.

[4] = PD study: compound concentration in mouse liver; type: in vivo, C57BL/6 mice; conditions: male, C57BL/6, mouse, 50 mg/kg, 50 mpk oral; for concentration at 3 h: read-out: Liver Conc uM (3 h); for concentration at 6 h: read-out: Liver Conc uM (6 h)
Protocol: 9-10 week old male C57BL/6 mice were dosed orally with 50 mg/kg of vehicle or compound formulated in 5% w/v tween 80 and 0.5% methyl cellulose. At indicated time points (3 and 6 hours or or 4 and 8 hours post-dosing as shown in the results below), whole blood was collected, animal was sacrificed and liver was collected. Blood samples were transferred to vials containing 4 μL of 10% w/v EDTA, centrifuged at 6000 rpm for 8 in below 10° C. to obtain plasma. Samples were frozen and later processed for HMOX1 protein levels as indicated below: […]

[5] = Kinetic solubility; type: physicochemical; conditions: Dulbecco's phosphate buffer saline (DPBS), aqueous buffer, kinetic from dmso stock, DPBS pH 7.4, 25° C., 200 μM test compound
Procedure, shortened: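 Compound from 10 mM DMSO stock diluted to 200 μM final in DPBS pH 7.4 and, separately, in DMSO, in duplicate. Shaken 16 h at 25 °C, then centrifuged 20 min at 25 °C. Supernatant analysed by HPLC.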

[6] = molecular target: T1, Human BACH1 (Homo sapiens, UniProt O14867); assay: Microscale thermophoresis (MST) assay / Bach 1 binding assay; conditions: 10 nM fluorescently labeled BACH1(aa179-736), 25° C.
T1 construct: 10×HIS-GP-BACH1(aa179-736)-Thrombin-FLAG; 10xHis (N); GP linker (Gly-Pro) (N); Thrombin cleavage site (C); FLAG (C); host or cells: Sf9 insect cells
T1 sequence (O14867 179-736): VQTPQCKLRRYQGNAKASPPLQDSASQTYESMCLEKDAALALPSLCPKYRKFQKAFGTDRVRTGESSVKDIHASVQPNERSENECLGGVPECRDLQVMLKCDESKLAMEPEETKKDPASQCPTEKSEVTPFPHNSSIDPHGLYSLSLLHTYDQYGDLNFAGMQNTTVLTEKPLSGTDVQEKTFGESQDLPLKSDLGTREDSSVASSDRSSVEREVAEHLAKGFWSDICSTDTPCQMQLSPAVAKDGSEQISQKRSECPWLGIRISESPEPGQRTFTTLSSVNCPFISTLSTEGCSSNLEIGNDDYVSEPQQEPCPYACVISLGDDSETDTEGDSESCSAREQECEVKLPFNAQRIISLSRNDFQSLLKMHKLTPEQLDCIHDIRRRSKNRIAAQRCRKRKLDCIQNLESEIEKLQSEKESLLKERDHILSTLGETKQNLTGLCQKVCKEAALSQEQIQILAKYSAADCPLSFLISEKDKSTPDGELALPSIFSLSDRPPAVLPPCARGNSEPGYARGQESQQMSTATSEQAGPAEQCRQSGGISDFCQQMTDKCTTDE
Protocol: Example 146. Microscale Thermophoresis (MST) Assay/Bach 1 Binding Assay
Outline of Protein Expression/Production
Human BACH1 (construct-ID: 10×HIS-GP-BACH1(aa179-736)-Thrombin-FLAG) was expressed in Sf9 insect cells. Protein purification was performed using affinity chromatography, followed by size-exclusion chromatography. Quality of resulting protein was judged using SDS-PAGE analysis.
The MST technology is based on measurement of protein movement along a temperature gradient. Thereby, fluorescently labeled protein is loaded into capillaries, where an infrared laser heats a small volume. Before and during heating, fluorescent intensity is measured at the site of irradiation and the loss of fluorescence in the IR laser focus is quantified.
Two major factors contribute to change of fluorescence signal. First of all, the so-called TRIC (Temperature Related Intensity Change) effect is caused by the temperature-dependency of fluorophore's quantum yield. Herein, the extent of the temperature dependence depends on the chemical environment, which may be changed by the binding of a ligand (e.g. compound, peptide) to the target. Moreover, Kd value between ligand and target can depend on temperature. Second, thermophoresis, which is defined as movement of fluorescent molecules along temperature gradient, is a major contributor to change of fluorescence. Hereby, protein movement along the gradient depends on hydrodynamic radius, charge and hydration shell. These properties can change upon association of the labeled protein with another species, e.g. compound. Thereby, MST detects the differences in protein movement with increasing ligand concentration: from this, the fraction of ligand bound protein and a Kd value can be determined.
For Kd determination of compounds binding BACH1, the following protocol was applied: 10×HIS-GP-BACH1(aa179-736)-Thrombin-FLAG (expressed and purified at Proteros) was fluorescently labeled via its lysine-residues (2nd gen NHS-NT.647 dye).
Experiments were performed using the experimental device Monolith NT.115 Pico, NanoTemper Technologies, with MST power set to medium and excitation power set to 2% at a reaction temperature of 25° C.
10 nM fluorescently labeled BACH1 was applied to reaction buffer containing 50 mM HEPES pH 8.0, 100 mM NaCl, 5% glycerol, 0.05% Tween20 and 1 mM DTT in a reaction volume of 8 μL using Monolith NT.115 Premium Capillaries. Compounds were applied at a maximal concentration of 103 μM with 15 subsequent factor 2 dilutions.

[7] = HepG2, human HMOX1, as listed in Table 5, read-out: HMOX1 EC50 h
[8] = human HMOX1 protein level in HepG2 lysate, * = average of 2 or more EC50 determinations, NA = Not Active, read-out: EC50

Structure (SMILES) | FTH1 expression fold increase (in words) [1] | EC50 [2, 7] [nM] | EC50 [2, 8] [nM] | inhibition at 10 µM [3] [%] | concentration at 3 h [4] [µM] | concentration at 6 h [4] [µM] | solubility at 16 h [5] [µM] | Kd [6] [nM]
COC(=O)/C=C/C(=O)OC [DMF, dimethyl fumarate, reference compound] | comparable fold increases |  |  |  |  |  |  | 
Cn1c(Nc2nc3cc(OC(F)(F)F)ccc3[nH]2)nc2cc(C(=O)O)ccc21 [Example 13, 1-methyl-2-((5-(trifluoromethoxy)-1H-benzo[d]imidazol-2-yl)amino)-1H-benzo[d]imidazole-5-carboxylic acid] |  | 1900 | 1900 | 34 | 63 | 5.4 |  | 
Cn1c(Nc2nc3ccc(C(F)(F)F)cc3o2)nc2cc(C(=O)NCCO)ccc21 [Example 33, N-(2-hydroxyethyl)-1-methyl-2-((6-(trifluoromethyl)benzo[d]oxazol-2-yl)amino)-1H-benzo[d]imidazole-5-carboxamide] |  |  | 300 |  |  |  | 0.9 (≈ 0.377 µg/mL) | 260
Cn1c(Nc2nc3ccc(OC(F)(F)F)cc3o2)nc2cc(C(=O)O)ccc21 [Example 44, 1-methyl-2-((6-(trifluoromethoxy)benzo[d]oxazol-2-yl)amino)-1H-benzo[d]imidazole-5-carboxylic acid] |  | 2000 | 1300 | 15 | 217 | 162 |  | 
COCCNC(=O)c1ccc2c(c1)nc(Nc1nc3ncccc3o1)n2C [Example 112, N-(2-methoxyethyl)-1-methyl-2-(oxazolo[4,5-b]pyridin-2-ylamino)-1H-benzo[d]imidazole-5-carboxamide] |  |  |  |  |  |  |  | 560
COCCONC(=O)c1ccc2c(c1)nc(Nc1nc3ccc(C(F)(F)F)cc3o1)n2C [Example 124, N-(2-methoxyethoxy)-1-methyl-2-((6-(trifluoromethyl)benzo[d]oxazol-2-yl)amino)-1H-benzo[d]imidazole-5-carboxamide] |  |  | 200 |  |  |  | < 2 | 200
Cn1c(Nc2nc3ccc(N4CCCC4)cc3o2)nc2cc(C(=O)NCCOCCO)ccc21 [Example 137, N-(2-(2-hydroxyethoxy)ethyl)-1-methyl-2-((6-(pyrrolidin-1-yl)benzo[d]oxazol-2-yl)amino)-1H-benzo[d]imidazole-5-carboxamide] |  |  | 1300 | 18 |  |  | 6.9 (≈ 3.21 µg/mL) | 
